Where a SMILES comes first, the peptide text is derived from it.
What was measured:
P. aeruginosa PAO1 = assay: microbe, parasite or virus in culture; type: cell-based, Pseudomonas aeruginosa; settings: P. aeruginosa PAO1 (S)
Method in brief: (§1)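 Peptides 128→2 μg/mL, 2-fold series; inoculum ~5 × 10^5 CFU/mL from overnight culture (OD600 0.01, mixed 1:1). MHB non-cation-adjusted for bacteria, RPMI 1640 + 2% glucose for fungi. 37 °C, 20 h, OD600. MIC50/MIC90 at 50%/90% inhibition; n ≥ 3.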

C. auris TDG 1912 = assay: microbe, parasite or virus in culture; type: cell-based, Candida auris; settings: C. auris TDG 1912
Method in brief: as §1

[1] = RP-HPLC ElutionTime as indicator of hydrophobicity; type: physicochemical; settings: indicator of overall hydrophobicity; semipreparative RP-HPLC, Waters SymmetryPrep C8, water/ACN gradient with 0.1% TFA, 8 mL/min, 25 °C, 254 nm
Protocol: Crude peptides, made up to 10 mg/mL in 0.1% TFA (v/v) in ddH2O, were subjected to preparative RP-HPLC purification on an Agilent 1100 system, with elution in gradient. A gradient program at a flow rate of 8 mL/min and column temperature of 25 °C was used to achieve elution with solvent A (0.1% trifluoroacetic acid (TFA) in water (v/v)) and solvent B (0.1% TFA in 100% acetonitrile (ACN) (v/v)). The elution program was as follows: (1) At 0–73 min, 100% solvent A to 0% solvent B; (2) at 73–77 min, 40% solvent A to 60% solvent B; (3) at 77–93 min, 10% solvent A to 90% solvent B; (4) at 93–105 min, 100% solvent A to 0% solvent B. Data collected were the retention time of the major fraction for each peptide in minutes as RP-HPLC ElutionTime (ElutionTime). Absorbance was detected at 254 nm, and fractions were collected manually. The fractions collected were spun in a speed-vac to remove ACN and the contents lyophilized. After freeze-drying for 24 h the peptides were dissolved in 10% (v/v) acetic acid before being lyophilized for a second time and then stored at −20 °C.
Molecular descriptors used in the QSAR analysis included: charge, sequence length, overall lipophilicity (L), lipophilicity contributed by the polar or nonpolar residues (LP and LN), summation of the side chain surface areas of the total peptide, polar or nonpolar residues (SCSA, SCSAP, and SCSAN), the molecular weight of the entire peptide, polar or nonpolar residues (Mw, MwP, and MwN), count of small lipophilic residues (CSL) or aromatic residues (CAR), the total number of hydrogen bond donor and acceptor centers (HBtot, HBdon, and HBacc), the total number of rotatable bonds (#RotBonds) and various amphipathicity descriptors (LP/L, LP/LN, L/LN, Q/L, Q/LN, SCSAP/SCSAN, MwP/MwN, Q/CSL, and Q/CAR) (Suppl. Table S1). Experimentally determined characteristics included ElutionTime as an indicator of overall peptide hydrophobicity and the CD structure of each peptide determined in POPG/POPE lipids representing Gram-negative membranes, POPG lipids for Gram-positive membranes, and SDS micelles for fungal membranes. AMPs with an α-helical structure were labeled 4, β-sheets were labeled 3, β-turns and mixed conformations were labeled 2, and disordered structures were labeled 1.

[2] = MHB, 37 °C, 20 h, OD600, min. three biological repeats
[3] = 50% growth inhibition, RPMI 1640 + 2% glucose, 37 °C, 20 h, OD600
[4] = 90% growth inhibition, RPMI 1640 + 2% glucose, 37 °C, 20 h, OD600

Molecule | Modal MIC (P. aeruginosa PAO1; [2]) | Modal MIC (P. aeruginosa PAO1; shown in µM) | Modal MIC50 (C. auris TDG 1912; [3]) | Modal MIC90 (C. auris TDG 1912; [4]) | Modal MIC50 (C. auris TDG 1912; shown in µM) | Modal MIC90 (C. auris TDG 1912; shown in µM) | ElutionTime (RP-HPLC retention time of major fraction) [1]
CC(C)C[C@H](NC(=O)[C@H](CCCCN)NC(=O)[C@H](CO)NC(=O)[C@H](CCCCN)NC(=O)[C@H](Cc1c[nH]c2ccccc12)NC(=O)[C@H](C)NC(=O)[C@H](CCCCN)NC(=O)[C@@H](N)CCCCN)C(=O)N[C@@H](C)C(=O)N[C@@H](CCCCN)C(=O)N[C@@H](CCCCN)C(=O)N[C@@H](CC(C)C)C(=O)N[C@@H](CCCNC(=N)N)C(=O)N[C@@H](C)C(=O)N[C@@H](CCCCN)C(=O)NCC(=O)N[C@@H](CCCCN)C(N)=O [PS-PB-14a] (H-KKAWKSKLAKKLRAKGK-NH2) | > 128 µg/mL | > 63.8 µM | > 128 µg/mL | > 128 µg/mL | > 63.8 µM | > 63.8 µM | –
KCLTLRSLKKTLKFCASGRT-NH2 [X1-20a, novel amidated frog AMP derivative, Xenopus laevis] | > 128 µg/mL | > 55 µM | – | – | > 55 µM | > 55 µM | 31,7 min
CC[C@H](C)[C@H](NC(=O)[C@H](CCCCN)NC(=O)[C@H](CC(C)C)NC(=O)[C@H](C)NC(=O)[C@H](C)NC(=O)[C@H](CCCCN)NC(=O)[C@H](CC(C)C)NC(=O)[C@H](C)NC(=O)[C@@H](N)CCCCN)C(=O)NCC(=O)N[C@@H](C)C(=O)N[C@@H](CC(N)=O)C(N)=O [CPF-P3-12a] (H-KALKAALKIGAN-NH2) | > 128 µg/mL | > 103.8 µM | > 128 µg/mL | > 128 µg/mL | > 103.8 µM | > 103.8 µM | –
CC[C@H](C)[C@H](NC(=O)[C@H](CCCCN)NC(=O)[C@H](CC(C)C)NC(=O)[C@H](C)NC(=O)[C@H](C)NC(=O)[C@H](CCCCN)NC(=O)[C@H](CC(C)C)NC(=O)[C@H](C)NC(=O)[C@@H](N)CCCCN)C(=O)NCC(N)=O [CPF-P3-10a] (H-KALKAALKIG-NH2) | > 128 µg/mL | > 122 µM | > 128 µg/mL | > 128 µg/mL | > 122 µM | > 122 µM | –
CC[C@H](C)[C@H](NC(=O)CNC(=O)[C@@H](N)CCCCN)C(=O)N[C@@H](CCCNC(=N)N)C(=O)NCC(=O)N[C@@H](Cc1ccc(O)cc1)C(=O)N[C@@H](CCCCN)C(=O)NCC(=O)NCC(=O)N[C@@H](Cc1ccc(O)cc1)C(=O)N[C@@H](CS)C(=O)N[C@@H](CCCCN)C(=O)NCC(=O)N[C@@H](C)C(=O)N[C@@H](Cc1ccccc1)C(=O)N[C@@H](CCCCN)C(=O)N[C@@H](CCC(N)=O)C(=O)N[C@H](C(=O)N[C@@H](CS)C(=O)N[C@@H](CCCCN)C(=O)N[C@@H](CS)C(=O)N[C@@H](Cc1ccc(O)cc1)C(=O)O)[C@@H](C)O [Os] (H-KGIRGYKGGYCKGAFKQTCKCY-OH; N-terminus and C-terminus assumed) | > 128 µg/mL | > 51.7 µM | > 128 µg/mL | > 128 µg/mL | > 51.7 µM | > 51.7 µM | 24,7 min
CC(C)C[C@H](NC(=O)[C@H](CCCCN)NC(=O)[C@H](CO)NC(=O)[C@H](CCCCN)NC(=O)[C@@H](N)Cc1c[nH]c2ccccc12)C(=O)N[C@@H](C)C(=O)N[C@@H](CCCCN)C(=O)N[C@@H](CCCCN)C(N)=O [PS-PB-8a] (H-WKSKLAKK-NH2) | > 128 µg/mL | > 127.2 µM | > 128 µg/mL | > 128 µg/mL | > 127.2 µM | > 127.2 µM | –
CC[C@H](C)[C@H](NC(=O)CNC(=O)[C@@H](N)CCCCN)C(=O)N[C@@H](CCCNC(=N)N)C(=O)NCC(=O)N[C@@H](Cc1ccc(O)cc1)C(=O)N[C@@H](CCCCN)C(=O)NCC(=O)NCC(=O)N[C@@H](Cc1ccc(O)cc1)C(=O)N[C@@H](CS)C(=O)N[C@@H](CCCCN)C(=O)NCC(=O)N[C@@H](C)C(=O)N[C@@H](Cc1ccccc1)C(=O)N[C@@H](CCCCN)C(=O)N[C@@H](CCC(N)=O)C(=O)N[C@H](C(=O)N[C@@H](CS)C(=O)N[C@@H](CCCCN)C(=O)N[C@@H](CS)C(=O)N[C@@H](Cc1ccc(O)cc1)C(N)=O)[C@@H](C)O [Osa] (H-KGIRGYKGGYCKGAFKQTCKCY-NH2; N-terminus assumed) | > 128 µg/mL | > 51.7 µM | > 128 µg/mL | > 128 µg/mL | > 51.7 µM | > 51.7 µM | 24,5 min
CC[C@H](C)[C@H](NC(=O)[C@@H](N)Cc1c[nH]c2ccccc12)C(=O)N[C@@H](CCCCN)C(=O)N[C@@H](CO)C(=O)N[C@H](C(=O)N[C@@H](C)C(=O)N[C@@H](CCCCN)C(=O)N[C@@H](CCCCN)C(N)=O)[C@@H](C)O [Opis8a] (H-WIKSTAKK-NH2) | > 128 µg/mL | > 133.2 µM | > 128 µg/mL | > 128 µg/mL | > 133.2 µM | > 133.2 µM | –
CC[C@H](C)[C@H](NC(=O)CNC(=O)[C@@H](N)CCCNC(=N)N)C(=O)N[C@@H](CCCNC(=N)N)C(=O)NCC(=O)N[C@@H](Cc1ccc(O)cc1)C(=O)N[C@@H](CCCCN)C(=O)NCC(=O)NCC(=O)N[C@@H](Cc1ccc(O)cc1)C(=O)N[C@@H](CS)C(=O)N[C@H](C(=O)NCC(=O)N[C@@H](CCCNC(=N)N)C(=O)N[C@@H](Cc1ccccc1)C(=O)N[C@@H](CCCCN)C(=O)N[C@@H](CCC(N)=O)C(=O)N[C@H](C(=O)N[C@@H](CS)C(=O)N[C@@H](CCCCN)C(=O)N[C@@H](CS)C(=O)N[C@@H](Cc1ccc(O)cc1)C(=O)O)[C@@H](C)O)[C@@H](C)O [OmDefB] (H-RGIRGYKGGYCTGRFKQTCKCY-OH; N-terminus and C-terminus assumed) | > 128 µg/mL | > 49.9 µM | > 128 µg/mL | > 128 µg/mL | > 49.9 µM | > 49.9 µM | 25 min
CC[C@H](C)[C@H](N)C(=O)N[C@@H](CCCNC(=N)N)C(=O)NCC(=O)N[C@@H](Cc1ccc(O)cc1)C(=O)N[C@@H](CCCCN)C(=O)NCC(=O)NCC(=O)N[C@@H](Cc1ccc(O)cc1)C(=O)N[C@@H](CS)C(=O)N[C@@H](CCCCN)C(N)=O [Os(3-12)a] (H-IRGYKGGYCK-NH2) | > 128 µg/mL | > 112 µM | > 128 µg/mL | > 128 µg/mL | > 112 µM | > 112 µM | –

Source: paper PMC11191095, “QSAR Reveals Decreased Lipophilicity of Polar Residues Determines the Selectivity of Antimicrobial Peptide Activity” (ACS Omega, 2024)
